Experimental data published in US5061721A (G. D. Searle & Co., priority 1990, dated 1991).

Legend:
[1] = target: T1, NMDA receptor-associated glycine recognition site (Glycine B receptor) (Rattus norvegicus, UniProt P35439); assay: TCP modulation assay (stimulation of [3H]TCP binding); format: biochemical; details: in the presence of 0.6 μM glycine; basal binding 2583 ±381 DPM
T1 construct: synaptic plasma membranes (SPM) prepared from rat forebrain; tissue Sasco, St. Charles, Mo; (animals); host or cells: forebrain synaptic plasma membranes of 30-45 day old male Sprague-Dawley rats, Triton X-100 washed
Procedure: (§1) [^3 H]TCP binding was performed using Triton X-100 washed synaptic plasma membranes (SPM) prepared from rat forebrain (30-45 day old, male Sprague-Dawley; Sasco, St. Charles, Mo.) as described previously [J. W. Thomas, W. F. Hood, J. B. Monahan, P. C. Contreras and T. L. O'Donohue, Brain Res., 442, 396-398 (1988)]. […] The samples were then filtered though glass fiber filters (Schleicher and Schuell #32) which were pretreated with 0.05% (v/v) polyethylenimine. The filters were washed and the radioactivity quantitated by liquid scintillation spectrometry. […] The EC50 values for the stimulation of [^3 H]TCP binding were determined using a four parameter logistic regression analysis.

Male Long-Evans rats = assay: Passive avoidance assay; format: in vivo, rat; details: for Latency to enter box 24 hours after shock: n = 6; for Latency in Seconds in Passive Avoidance: saline 11.9
Excerpt: Subjects: Male Long-Evans rats weighing about 200 g (Sasco) were used. They were housed two per cage with ad lib food and water for the duration of the experiment.
Apparatus: The apparatus consisted of a plexiglass box (32×26×20 cm) with a lid with a floor of metal rods spaced 1.8 cm apart. The box was divided into two chambers, one painted black and the other gray. Two doors (12 cm high) were cut into the front of the box allowing access into each chamber.
A Y-shaped plexiglas runway was attached to the front of the box. The stem of the Y was 16 cm long and unpainted. The arms of the Y (14 cm long each) led to the two doors and each was painted the color of the chamber to which it led. The stem of the Y extended over the edge of the table on which the apparatus was placed, so that it was approximately 75 cm above the floor. The metal floor of the box was wired to a Lafayette shock generator so that a 0.5 mAmp shock could be delivered.
Procedure: On the first rest day, each rat was placed on the runway and allowed to enter one of the chambers. The door to this chamber was then closed, and the rat was then allowed to enter the other chamber. […] Sixty minutes later, each rat was again allowed to enter one chamber, where it received a footshock for 2 seconds. […] On the third test day, the rat is again placed on the runway and allowed to enter a chamber. On days two and three, each rat's latency to enter a chamber, and which chamber it entered, are recorded.

Rats = assay: Rewarded alternation of rats in a T-maze; format: in vivo, rat; details: 3 mg/kg i.p.
Excerpt: Both groups learned the task in about 20 trials. Learning is defined as making 9 correct out of 10 consecutive choices. On the following day, the food reward was placed in the other arm of the maze (reversal).

[2] = glycine prodrug; cited from earlier work
[3] = target: PCP site of the NMDA-PCP receptor complex; assay: [3H]TCP binding to synaptic plasma membranes under basal conditions; set-up: species or system rat
Procedure: as §1

Structure (SMILES): NCC(=O)O [Glycine]
- Maximum specific [3H]TCP binding [1]: 4712±779 DPM

Structure (SMILES): N[C@@H]1CONC1=O [D-cycloserine, 4-amino-3-isoxazolidone]
- % of Saline Control Latency in Passive Avoidance (Male Long-Evans rats; 0.3 mg/kg i.p., post-shock): 160%
- % of Saline Control Latency in Passive Avoidance (Male Long-Evans rats; 0.3 mg/kg i.p., pre-retrieval): 105%
- % of Saline Control Latency in Passive Avoidance (Male Long-Evans rats; 0.3 mg/kg i.p., pre-shock): 152%
- % of Saline Control Latency in Passive Avoidance (Male Long-Evans rats; 3 mg/kg i.p., post-shock): 215%
- % of Saline Control Latency in Passive Avoidance (Male Long-Evans rats; 3 mg/kg i.p., pre-retrieval): 153%
- % of Saline Control Latency in Passive Avoidance (Male Long-Evans rats; 3 mg/kg i.p., pre-shock): 245%
- Latency to enter box 24 hours after shock (Male Long-Evans rats; 10 mg/kg i.p., drug after shock): 22.8 ± 2.4 s
- Latency to enter box 24 hours after shock (Male Long-Evans rats; 10 mg/kg i.p., drug before shock): 16.6 ± 3.0 s
- % of Saline Control Latency in Passive Avoidance (Male Long-Evans rats; 10 mg/kg i.p., post-shock): 153%
- % of Saline Control Latency in Passive Avoidance (Male Long-Evans rats; 10 mg/kg i.p., pre-retrieval): 180%
- % of Saline Control Latency in Passive Avoidance (Male Long-Evans rats; 10 mg/kg i.p., pre-shock): 138%
- % of Saline Control Latency in Passive Avoidance (Male Long-Evans rats; 20 mg/kg i.p., pre-retrieval): 100%
- Latency in Seconds in Passive Avoidance (Male Long-Evans rats; 60 mg/kg I.G.): 17.3 s
- Trials to learn the reversal (Rats; following day, saline about 32 trials): about 20 trials
- Trials to learn place learning task (9 correct out of 10 consecutive choices) (Rats; initial task): about 20 trials

Structure (SMILES): CCCCCNCC(N)=O [milacemide]
- Increase of whole brain content of glycine [2]: 30%

Structure (SMILES): c1csc(C2(N3CCCCC3)CCCCC2)c1 [[^3 H]TCP]
- Kd [3]: 44 nM

Structure (SMILES): C[C@@H](N)C(=O)O [D-alanine]
- Latency in Seconds in Passive Avoidance (Male Long-Evans rats; 534 mg/kg I.G.): 10.9 s
